Test results as given in patent publication US9758538B2, “Pyrimidine derivatives” (PFIZER INC., priority 2015, dated 2017).

The compounds below were run against truncated PI3Kα (p110α/iSH2 p85α), PI3KA_Act (Homo sapiens (Human), UniProt P42336) (assay: PI3Kα biochemical kinase assay, fluorescence polarization format (PI3KA_Act)). Conditions: 0.5 nM p110α/iSH2 p85, 1 mM ATP, 30 μM PIP2, 15-min preincubation; Morrison equation fit; read-out: PI3KA_Act Ki.
Method: Enzyme Production for Biochemical Assay: p110α-iSH2 p85α Complex (Full Length p110α and p85α iSH2)(“PI3KA Act”)
Gene encoding p110α subunit was subcloned into polyhedrine promoter while gene encoding p85α niSH2 domains was subcloned into p10 promoter. […] Recombinant baculovirus was generated using Bac-to-Bac protocol (Life Technologies, Carlsbad, Calif.). Large scale expression was conducted in Sf21 (Life Technologies, Carlsbad, Calif.) cells at a multiplicity of infection (“MOI”)=1 for 48 hours. Cells were lyzed in 50 mM Tris pH 8.0, 250 mM NaCl, 5% glycerol, 0.25 mM TCEP, and 20 mM imidazole. The p110α-niSH2 p85α complex was purified from clarified supernatant using Immobilized Metalo Affinity Chromatography (“IMAC”). The protein was eluted from the column using 50 mM Tris pH 8.0, 200 mM NaCl, 0.25 mM TCEP, and 200 mM imidazole. Following elution p110α-niSH2 p85α complex was dialyzed against 4 liters of 50 mM Tris pH 8.0, 200 mM NaCl, 0.25 mM TCEP, and 40 mM imidazole in the presence of PreScission Protease (1:70 molar ratio of Protease to Protein) and TEV protease (1:40 molar ratio protease to protein) for 16 hours at 4° C. The protein was further purified using reverse IMAC to remove cleaved histidine tag and contaminants captured during initial IMAC purification. The mixture of p110α-iSH2 p85α complex and cleaved nSH2 was recovered in reverse IMAC 40 mM imidazole flow through and 60 mM imidazole wash fractions. Those fractions were pulled together and loaded on Superdex 200 26/60 SEC column equilibrated in 25 mM Tris, pH 8.0, 100 mM NaCl, 2% glycerol, and 2 mM TCEP.
The enzymatic reactions were conducted in 50 μL volumes in 96-well plates. […] The reactions were incubated for 30 min at room temperature, stopped with EDTA pH 8 (10 mM final concentration). […] The plate was shaken for 30 minutes and fluorescence polarization values were measured on an LJL Analyst HT plate reader (Molecular Devices, Sunnyvale, Calif.).

truncated PI3Kα (p110α/iSH2 p85α), PI3KA_Act, sequence (P42336 whole entry, the tested form may be a part): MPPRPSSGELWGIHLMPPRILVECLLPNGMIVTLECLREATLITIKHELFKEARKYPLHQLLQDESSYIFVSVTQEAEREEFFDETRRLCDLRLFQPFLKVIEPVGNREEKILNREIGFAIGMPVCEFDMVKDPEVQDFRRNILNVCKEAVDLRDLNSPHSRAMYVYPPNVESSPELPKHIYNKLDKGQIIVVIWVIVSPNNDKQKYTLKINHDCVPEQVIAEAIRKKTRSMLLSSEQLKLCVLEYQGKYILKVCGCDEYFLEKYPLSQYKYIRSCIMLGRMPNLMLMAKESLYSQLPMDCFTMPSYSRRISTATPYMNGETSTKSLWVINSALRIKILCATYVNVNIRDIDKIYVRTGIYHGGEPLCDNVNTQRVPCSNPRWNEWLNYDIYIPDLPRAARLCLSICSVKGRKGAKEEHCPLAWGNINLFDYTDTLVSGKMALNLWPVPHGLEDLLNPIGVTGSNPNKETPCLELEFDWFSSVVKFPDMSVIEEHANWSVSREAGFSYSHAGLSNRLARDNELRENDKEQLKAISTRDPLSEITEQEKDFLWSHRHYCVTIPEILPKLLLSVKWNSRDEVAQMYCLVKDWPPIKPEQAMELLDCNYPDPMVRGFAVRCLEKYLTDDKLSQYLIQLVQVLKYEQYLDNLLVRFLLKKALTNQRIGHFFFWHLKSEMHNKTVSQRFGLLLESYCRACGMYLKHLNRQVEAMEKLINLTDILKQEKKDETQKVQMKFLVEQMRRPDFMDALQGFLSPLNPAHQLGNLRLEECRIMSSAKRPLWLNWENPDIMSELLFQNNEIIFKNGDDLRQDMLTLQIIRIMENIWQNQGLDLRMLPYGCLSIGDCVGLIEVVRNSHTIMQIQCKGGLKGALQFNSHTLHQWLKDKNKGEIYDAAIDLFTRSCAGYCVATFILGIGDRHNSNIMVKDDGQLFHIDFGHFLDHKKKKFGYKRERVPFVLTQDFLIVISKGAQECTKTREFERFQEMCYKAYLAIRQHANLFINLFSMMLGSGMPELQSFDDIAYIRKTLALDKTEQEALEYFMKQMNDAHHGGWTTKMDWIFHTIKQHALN

Compound | Ki
CC[C@@]1(Nc2cc(-c3cnc(N)nc3)nc(N3CCOCC3)n2)CCN(C(=O)OC(C)(C)C)C1 [Example 37, tert-butyl (3R)-3-{[2′-amino-2-(morpholin-4-yl)-4,5′-bipyrimidin-6-yl]amino}-3-ethylpyrrolidine-1-carboxylate] | 0.725 nM
CC1(OC(=O)N2CC[C@](CO)(Nc3cc(-c4cnc(N)nc4)nc(N4CCOCC4)n3)C2)CC1 [Example 47, 1-methylcyclopropyl (3S)-3-{[2′-amino-2-(morpholin-4-yl)-4,5′-bipyrimidin-6-yl]amino}-3-(hydroxymethyl)pyrrolidine-1-carboxylate] | 0.025 nM
Nc1ncc(-c2cc(N[C@@]3(CO)CCN(C(=O)[C@H](O)c4ccccc4)C3)nc(N3CCOCC3)n2)cn1 [Example 55, (2R)-1-[(3S)-3-{[2′-amino-2-(morpholin-4-yl)-4,5′-bipyrimidin-6-yl]amino}-3-(hydroxymethyl)pyrrolidin-1-yl]-2-hydroxy-2-phenylethanone] | 0.371 nM
CC(C)OC(=O)N1CC[C@](CO)(Nc2nc(N3CCOCC3)nc(-c3cnc(N)nc3)c2F)C1 [Example 70, propan-2-yl (3S)-3-{[2′-amino-5-fluoro-2-(morpholin-4-yl)-4,5′-bipyrimidin-6-yl]amino}-3-(hydroxymethyl)pyrrolidine-1-carboxylate] | 0.031 nM
CCCOC(=O)N1CC[C@](CO)(Nc2cc(-c3cnc(N)nc3)nc(N3CCOCC3)n2)C1 [Example 77, propyl (3S)-3-{[2′-amino-2-(morpholin-4-yl)-4,5′-bipyrimidin-6-yl]amino}-3-(hydroxymethyl)pyrrolidine-1-carboxylate] | < 0.018 nM
CN1CCCC(N2CC[C@](CO)(Nc3cc(-c4cnc(N)nc4)nc(N4CCOCC4)n3)C2)C1=O (stereo partly drawn) [Example 84, 3-[(3S)-3-{[2′-amino-2-(morpholin-4-yl)-4,5′-bipyrimidin-6-yl]amino}-3-(hydroxymethyl)pyrrolidin-1-yl]-1-methylpiperidin-2-one] | 0.445 nM
Nc1ncc(-c2cc(N[C@@]3(CO)CCN(CC4CC4)C3)nc(N3CCOCC3)n2)cn1 [Example 71, [(3S)-3-{[2′-amino-2-(morpholin-4-yl)-4,5′-bipyrimidin-6-yl]amino}-1-(cyclopropylmethyl)pyrrolidin-3-yl]methanol] | 9.47 nM
CC(=O)N1CC[C@](CO)(Nc2cc(-c3cnc(N)nc3)nc(N3CCOCC3)n2)C1 [Example 32, 1-[(3S)-3-{[2′-amino-2-(morpholin-4-yl)-4,5′-bipyrimidin-6-yl]amino}-3-(hydroxymethyl)pyrrolidin-1-yl]ethanone] | 0.771 nM
Nc1ncc(-c2cc(NC3(CO)CNC3)nc(N3CCOCC3)n2)cn1 [Example 43, (3-{[2′-amino-2-(morpholin-4-yl)-4,5′-bipyrimidin-6-yl]amino}azetidin-3-yl)methanol] | 1.97 nM
CN(c1cc(-c2cnc(N)nc2)nc(N2CCOCC2)n1)C1(CO)CCN(C(=O)OC(C)(C)C)C1 (single isomer, unassigned) [Example 26, tert-butyl 3-{[2′-amino-2-(morpholin-4-yl)-4,5′-bipyrimidin-6-yl](methyl)amino}-3-(hydroxymethyl)pyrrolidine-1-carboxylate] | < 0.018 nM
CN(c1cc(-c2cnc(N)nc2)nc(N2CCOCC2)n1)C1(CO)CCN(C(=O)OC(C)(C)C)C1 (single isomer, unassigned) [Example 27, tert-butyl 3-{[2′-amino-2-(morpholin-4-yl)-4,5′-bipyrimidin-6-yl](methyl)amino}-3-(hydroxymethyl)pyrrolidine-1-carboxylate] | 0.717 nM
CCOC(=O)N1CC[C@](CO)(Nc2nc(N3CCOCC3)nc(-c3cnc(N)nc3)c2F)C1 [Example 69, ethyl (3S)-3-{[2′-amino-5-fluoro-2-(morpholin-4-yl)-4,5′-bipyrimidin-6-yl]amino}-3-(hydroxymethyl)pyrrolidine-1-carboxylate] | 0.15 nM
CC(C)S(=O)(=O)N1CC[C@](CO)(Nc2cc(-c3cnc(N)nc3)nc(N3CCOCC3)n2)C1 [Example 52, [(3S)-3-{[2′-amino-2-(morpholin-4-yl)-4,5′-bipyrimidin-6-yl]amino}-1-(propan-2-ylsulfonyl)pyrrolidin-3-yl]methanol] | 0.084 nM
CN(c1cc(-c2cnc(N)nc2)nc(N2CCOCC2)n1)C1(CO)CCN(C(=O)OC(C)(C)C)C1 (centres unmarked) [Example 25, tert-butyl 3-{[2′-amino-2-(morpholin-4-yl)-4,5′-bipyrimidin-6-yl](methyl)amino}-3-(hydroxymethyl)pyrrolidine-1-carboxylate] | 0.049 nM

The next lines start with the values.

Ki | Compound
0.036 nM | CC(C)(C)OC(=O)N1CC[C@](C)(Nc2nc(N3CCOCC3)nc(-c3cnc(N)nc3)c2F)C1 [Example 108, tert-butyl (3S)-3-{[2′-amino-5-fluoro-2-(morpholin-4-yl)-4,5′-bipyrimidin-6-yl]amino}-3-methylpyrrolidine-1-carboxylate]
0.237 nM | CCC(=O)N1CCC[C@](CO)(Nc2nc(N3CCOCC3)nc(-c3cnc(N)nc3)c2F)C1 [Example 146, 1-[(3S)-3-{[2′-amino-5-fluoro-2-(morpholin-4-yl)-4,5′-bipyrimidin-6-yl]amino}-3-(hydroxymethyl)piperidin-1-yl]propan-1-one]
0.097 nM | Nc1ncc(-c2nc(N3CCOCC3)nc(N[C@@]3(CO)CCN(C(=O)NCC(F)F)C3)c2F)cn1 [Example 132, (3S)-3-{[2′-amino-5-fluoro-2-(morpholin-4-yl)-4,5′-bipyrimidin-6-yl]amino}-N-(2,2-difluoroethyl)-3-(hydroxymethyl)pyrrolidine-1-carboxamide]
1.82 nM | COCC(=O)N1CCC[C@@](CO)(Nc2nc(N3CCOCC3)nc(-c3cnc(N)nc3)c2F)C1 [Example 151, 1-[(3R)-3-{[2′-amino-5-fluoro-2-(morpholin-4-yl)-4,5′-bipyrimidin-6-yl]amino}-3-(hydroxymethyl)piperidin-1-yl]-2-methoxyethanone]
< 0.018 nM | C[C@H]1COCCN1c1nc(N[C@@]2(CO)CCN(C(=O)C3CC3)C2)c(F)c(-c2cnc(N)nc2)n1 [Example 120, [(3S)-3-({2′-amino-5-fluoro-2-[(3S)-3-methylmorpholin-4-yl]-4,5′-bipyrimidin-6-yl}amino)-3-(hydroxymethyl)pyrrolidin-1-yl](cyclopropyl)methanone]
0.036 nM | Nc1ncc(-c2nc(N3CCOCC3)nc(N[C@@]3(CO)CCN(C(=O)C4(F)CCC4)C3)c2F)cn1 [Example 115, [(3S)-3-{[2′-amino-5-fluoro-2-(morpholin-4-yl)-4,5′-bipyrimidin-6-yl]amino}-3-(hydroxymethyl)pyrrolidin-1-yl](1-fluorocyclobutyl)methanone]
0.557 nM | Cc1ncc(-c2cc(N[C@@]3(CO)CCN(C(=O)OCC(F)F)C3)nc(N3CCOCC3)n2)cn1 [Example 138, 2,2-difluoroethyl (3S)-3-(hydroxymethyl)-3-{[2′-methyl-2-(morpholin-4-yl)-4,5′-bipyrimidin-6-yl]amino}pyrrolidine-1-carboxylate]
0.795 nM | Nc1ncc(-c2cc(N[C@@]3(CO)CCN(C(=O)NCC(F)(F)F)C3)nc(N3CCOCC3)n2)cn1 [Example 133, (3S)-3-{[2′-amino-2-(morpholin-4-yl)-4,5′-bipyrimidin-6-yl]amino}-3-(hydroxymethyl)-N-(2,2,2-trifluoroethyl)pyrrolidine-1-carboxamide]
< 0.018 nM | C[C@H]1COCCN1c1nc(N[C@@]2(CO)CCN(C(=O)OC(C)(C)C)C2)c(F)c(-c2cnc(N)nc2)n1 [Example 111, tert-butyl (3S)-3-({2′-amino-5-fluoro-2-[(3S)-3-methylmorpholin-4-yl]-4,5′-bipyrimidin-6-yl}amino)-3-(hydroxymethyl)pyrrolidine-1-carboxylate]
2.96 nM | Nc1ncc(-c2nc(N3CCOCC3)nc(N[C@]3(CO)CCCN(C(=O)OCC(F)F)C3)c2F)cn1 [Example 148, 2,2-difluoroethyl (3R)-3-{[2′-amino-5-fluoro-2-(morpholin-4-yl)-4,5′-bipyrimidin-6-yl]amino}-3-(hydroxymethyl)piperidine-1-carboxylate]
0.674 nM | C[C@H]1COCCN1c1nc(N[C@@]2(CO)CCN(C(=O)C3COC3)C2)cc(-c2cnc(N)nc2)n1 [Example 104, [(3S)-3-({2′-amino-2-[(3S)-3-methylmorpholin-4-yl]-4,5′-bipyrimidin-6-yl}amino)-3-(hydroxymethyl)pyrrolidin-1-yl](oxetan-3-yl)methanone]
3.07 nM | COC(=O)N1CCC[C@@](CO)(Nc2nc(N3CCOCC3)nc(-c3cnc(N)nc3)c2F)C1 [Example 155, methyl (3R)-3-{[2′-amino-5-fluoro-2-(morpholin-4-yl)-4,5′-bipyrimidin-6-yl]amino}-3-(hydroxymethyl)piperidine-1-carboxylate]
